Assays:
[1] = Plasma pharmacokinetics, acute study (single oral administration); format: in vivo, CD1 female mice; conditions: for Cmax / AUC(0-t) / Tmax / HL / Cmax ±SD / AUC 0-last: plasma analyte
Procedure: (§1) The experiments were performed in CD1 female mice, 7 weeks of age, (body weight 25 ± 2 g) obtained from Envigo RMS SrL (Udine, Italy). They were maintained under specific-pathogen-free conditions with constant temperature and humidity, according to institutional guidelines regularly checked by a certified veterinarian. Animal experimentation was conducted in conformance with the following laws, regulations, and policies governing the care and use of laboratory animals: Italian Governing Law (D. l. 26/2014; Authorization n.19/2008-A issued March 6, 2008 by the Ministry of Health). Mario Negri Institutional Regulations and Policies providing internal authorizations for persons conducting animal experiments (Quality Management System Certificate –UNI EN ISO 9001:2008 – Reg. N 86121). The experimental protocol was reviewed by the Mario Negri Institute Ethical Committee and approved by the Italian Ministry of Health (Aut. Min. No 489/2016-Pr).
(§2) The pharmacokinetics of oral Bio-nFeR was investigated in comparison to that of the reference formulation NCI-FeR, after single administration of multiple doses and after chronic administrations, daily for 2 weeks or bi-daily for 1 week. Bio-nFeR was reconstituted at 20 mg/mL fenretinide to allow the administration of 200 mg/Kg fenretinide that corresponded to the highest dose. The doses of 100, 50 and 10 mg/Kg were administered by using serial dilution of the 20 mg/mL solution.
(§3) NCI-FeR prepared, as per the NCI instructions, at 11.6% w:w fenretinide:internal capsule components, was diluted with corn oil to obtain the treatment solutions at the concentrations of 20, 15 and 10 mg/mL, corresponding to the administered doses of 200, 150 and 100 mg/Kg respectively.
(§4) The oral pharmacokinetics of Bio-nFeR were investigated in four independent groups of 24 mice, randomized to receive different treatment with the following fenretinide equivalent doses: 10, 50, 100 and 200 mg/Kg. The drug was administered by oral gavage and after treatment, blood samples were taken at 15 and 30 min and at 1, 2, 4, 8/10, 24 and 48 h and collected in heparinized tubes from the retro-orbital plexus of the mice under isoflurane anesthesia. Mice were then sacrificed by cervical dislocation and liver, kidney and brain were removed and immediately frozen in dry-ice for future determination. To obtain plasma, blood was centrifuged at 4000 rpm for 10 min at 4 °C. To evaluate fenretinide and metabolites excretion, urine and faeces were collected over a 0–24 h and 24–48 h periods. The collection was performed in three mice per group of treatment, individually housed into metabolic cages for urine and faeces collection. All the biological samples were stored at − 20 °C until analysis. To compare the absorption of Bio-nFeR to NCI-FeR and to study the bioavailability, another independent groups of 24 mice were randomized to receive an oral dose of 200 mg/Kg of NCI-FeR. Blood samples were taken at the time reported above. Twenty-four hours fractions of urine and faeces were collected in three mice per group of treatment. Plasma and the other biological specimens were stored at − 20 °C until analysis. Chronic study: the oral pharmacokinetic of Bio-nFeR in comparison with NCI-FeR were also investigated after chronic administrations. Mice were divided in three independent groups, randomized to receive a single treatment of 150 mg/Kg or different repeated treatments of 150 mg/Kg, daily for 2 weeks (12 days on and 2 days off), or 100 mg/Kg bi-daily for 1 week (5 days on 2 days off). Bio-nFeR and NCI-FeR were administered by oral gavage, collecting blood samples at 0.5, 1, 2, 4, 8/10 and 24 h, the day of the single treatment and at 0, 1, 2, 4, 8/10, 24 and 48 h after the last dose of both the chronic treatments. The procedures of blood collection, plasma preparation, sacrifice of mice and storing of samples were as reported in acute study. […]

[2] = Plasma pharmacokinetics, chronic study (150 mg/Kg single vs daily for 2 weeks); format: in vivo, CD1 female mice; conditions: for AUC(0-t): plasma, po, 150 mg/kg
Procedure: as §1, §2, §3, §4

[3] = female, CD1, mouse, plasma, po, 200 mg/kg, single oral Bio-nFeR, 4-HPR dose 200mg/Kg, Suppl. Table 2 B
[4] = female, CD1, mouse, plasma, po, 200 mg/kg, single oral NCI-nFeR, 4-HPR dose 200mg/Kg, Suppl. Table 2 B
[5] = single oral Bio-nFeR 10 mg/kg, Suppl. Table 2 A
[6] = single oral Bio-nFeR 50 mg/kg, Suppl. Table 2 A
[7] = single oral Bio-nFeR 100 mg/kg, Suppl. Table 2 A
[8] = single oral Bio-nFeR 200 mg/kg, Suppl. Table 2 A
[9] = single oral Bio-nFeR, 4-HPR dose 200mg/Kg, Suppl. Table 2 B
[10] = single oral NCI-nFeR, 4-HPR dose 200mg/Kg, Suppl. Table 2 B
[11] = female, CD1, mouse, plasma analyte, oral Bio-nFeR 150 mg/kg daily, 2 week
[12] = female, CD1, mouse, plasma analyte, oral Bio-nFeR 150 mg/kg, Day 1
[13] = plasma analyte, oral Bio-nFeR 150 mg/kg daily, 2 week
[14] = plasma analyte, oral Bio-nFeR 150 mg/kg, Day 1

Compound: CC1=C(/C=C/C(C)=C/C=C/C(C)=C/C(=O)Nc2ccc(O)cc2)C(C)(C)CCC1 [4-HPR, 4-hydroxy (phenyl)retinamide, reference compound]
- Cmax ([1]; female, CD1, mouse, plasma, po, 10 mg/kg, mice, single oral Bio-nFeR 10 mg/kg, Suppl. Table 2 A): 601 ng/mL
- AUC(0-t) ([1]; female, CD1, mouse, plasma, po, 10 mg/kg, single oral Bio-nFeR 10 mg/kg, Suppl. Table 2 A): 6750 ng·h/mL
- Tmax ([1]; female, CD1, mouse, plasma, po, 10 mg/kg, single oral Bio-nFeR 10 mg/kg, Suppl. Table 2 A, read-out: Tmax): 2 h
- Cmax ([1]; female, CD1, mouse, plasma, po, 50 mg/kg, mice, single oral Bio-nFeR 50 mg/kg, Suppl. Table 2 A): 3650 ng/mL
- AUC(0-t) ([1]; female, CD1, mouse, plasma, po, 50 mg/kg, single oral Bio-nFeR 50 mg/kg, Suppl. Table 2 A): 39200 ng·h/mL
- Tmax ([1]; female, CD1, mouse, plasma, po, 50 mg/kg, single oral Bio-nFeR 50 mg/kg, Suppl. Table 2 A, read-out: Tmax): 4 h
- Cmax ([1]; female, CD1, mouse, plasma, po, 100 mg/kg, mice, single oral Bio-nFeR 100 mg/kg, Suppl. Table 2 A): 5340 ng/mL
- AUC(0-t) ([1]; female, CD1, mouse, plasma, po, 100 mg/kg, single oral Bio-nFeR 100 mg/kg, Suppl. Table 2 A): 66300 ng·h/mL
- Tmax ([1]; female, CD1, mouse, plasma, po, 100 mg/kg, single oral Bio-nFeR 100 mg/kg, Suppl. Table 2 A, read-out: Tmax): 4 h
- Cmax ([1]; female, CD1, mouse, plasma, po, 200 mg/kg, mice, single oral Bio-nFeR 200 mg/kg, Suppl. Table 2 A): 6840 ng/mL
- AUC(0-t) ([1]; female, CD1, mouse, plasma, po, 200 mg/kg, single oral Bio-nFeR 200 mg/kg, Suppl. Table 2 A): 113000 ng·h/mL
- Tmax ([1]; female, CD1, mouse, plasma, po, 200 mg/kg, single oral Bio-nFeR 200 mg/kg, Suppl. Table 2 A, read-out: Tmax): 2 h
- AUC(0-t) [1, 3]: 113000 ng·h/mL
- Cmax [1, 3]: 6840 ng/mL
- Tmax ([1]; female, CD1, mouse, plasma, po, 200 mg/kg, single oral Bio-nFeR, 4-HPR dose 200mg/Kg, Suppl. Table 2 B, read-out: Tmax): 2 h
- AUC(0-t) [1, 4]: 97900 ng·h/mL
- Cmax [1, 4]: 8460 ng/mL
- Tmax ([1]; female, CD1, mouse, plasma, po, 200 mg/kg, single oral NCI-nFeR, 4-HPR dose 200mg/Kg, Suppl. Table 2 B, read-out: Tmax): 4 h
- half-life ([1]; female, CD1, mouse, plasma, mice, oral Bio-nFeR, different doses, read-out: elimination half-life (converted)): ~420 min
- HL [1, 5]: 7.5 h
- HL [1, 6]: 7.3 h
- HL [1, 7]: 6.5 h
- HL [1, 8]: 7.2 h
- HL [1, 9]: 7.2 h
- HL [1, 10]: 6.7 h
- AUC(0-t) [2, 11]: 85100 ng·h/mL
- AUC(0-t) [2, 12]: 56900 ng·h/mL
- Cmax at 2 weeks [2, 11]: 6810 ng/mL
- Tmax at 2 weeks [2, 11]: 4 h
- Cmax [2, 12]: 6350 ng/mL
- Tmax ([2]; female, CD1, mouse, plasma analyte, oral Bio-nFeR 150 mg/kg, Day 1, read-out: Tmax): 20 h
- HL [2, 13]: 5.7 h
- HL [2, 14]: 5.3 h

Compound: CC1=C(/C=C/C(C)=C/C=C/C(C)=C/C(=O)Nc2ccc(O)cc2)C(C)(C)CCC1=O [4-oxo-4-HPR]
- Cmax ±SD ([1]; mice, single oral Bio-nFeR 10 mg/kg, Suppl. Table 2 A): 505.1 ng/mL
- Cmax ±SD ([1]; mice, single oral Bio-nFeR 50 mg/kg, Suppl. Table 2 A): 2389.1 ng/mL
- Cmax ±SD ([1]; mice, single oral Bio-nFeR 100 mg/kg, Suppl. Table 2 A): 3109.1 ng/mL
- Cmax ±SD ([1]; mice, single oral Bio-nFeR 200 mg/kg, Suppl. Table 2 A): 4071.2 ng/mL
- AUC 0-last [1, 5]: 4145.3 ng·h/mL
- HL [1, 5]: 5.2 h
- Tmax [1, 5]: 2 h
- AUC 0-last [1, 6]: 24372.6 ng·h/mL
- HL [1, 6]: 5.4 h
- Tmax [1, 6]: 4 h
- AUC 0-last [1, 7]: 38500.3 ng·h/mL
- HL [1, 7]: 4.8 h
- Tmax [1, 7]: 4 h
- AUC 0-last [1, 8]: 58677.2 ng·h/mL
- HL [1, 8]: 5.3 h
- Tmax [1, 8]: 4 h
- AUC 0-last [1, 9]: 58677.2 ng·h/mL
- Cmax ±SD [1, 9]: 4071.2 ng/mL
- HL [1, 9]: 5.3 h
- Tmax [1, 9]: 4 h
- AUC 0-last [1, 10]: 39875.4 ng·h/mL
- Cmax ±SD [1, 10]: 3372.3 ng/mL
- HL [1, 10]: 5.4 h
- Tmax [1, 10]: 4 h
- amount of metabolite in plasma in comparison to 4-HPR ([1]; study of multiple doses, after Bio-nFeR administration): about 50%
- relative percent amount of metabolite versus 4-HPR in plasma ([2]; after single and repeated treatment): about 50%
- AUC 0-last [2, 13]: 54434.2 ng·h/mL
- Cmax ±SD [2, 13]: 4282.6 ng/mL
- HL [2, 13]: 4.7 h
- Tmax [2, 13]: 4 h
- AUC 0-last [2, 14]: 33726.1 ng·h/mL
- Cmax ±SD [2, 14]: 2979.4 ng/mL
- HL [2, 14]: 3.9 h

From paper PMC6706930, “A novel oral micellar fenretinide formulation with enhanced bioavailability and antitumour activity against multiple tumours from cancer stem cells” (Journal of Experimental & Clinical Cancer Research : CR, 2019)
